Values after ≈ are worked out from the molar mass of the structure shown. “Also recorded” adds a separate entry of the source. Where two headings read alike, the source gives them in different places.
How the values were obtained:
[1] = tested on: Helicobacter pylori [헬리코박터 파일로리]; assay: Paper disc growth inhibition zone, Helicobacter pylori; format: cell-based; conditions: for zone of inhibition at 5 µmol/disc: Helicobacter pylori, read-out: diameter of growth inhibition zone
[2] = tested on: food spoilage bacteria and pathogens [식품부패균 및 병원성균]; assay: Paper disc growth inhibition zone, food spoilage bacteria and pathogens (9 strains); format: cell-based; conditions: 5 μmol per disc, solid medium, 12-16 h at 37, 30 or 25 °C depending on strain
[3] = tested on: cells causing lung cancer or stomach cancer [폐암이나 위암을 일으키는 세포]; conditions: background statement; cited from earlier work
[4] = no test in this patent; mouse allergy test of urushiol derivatives cited (b4); cited from earlier work
[5] = cited master's thesis / KR 2009066135 A; cited from earlier work
[6] = tested on: food spoilage bacteria and pathogens [식품부패균 및 병원성균]; assay: Minimum inhibitory concentration, food spoilage bacteria and pathogens (9 strains); format: cell-based; conditions: liquid dilution 1000-4 μg/mL
S. aureus = assay: Minimum inhibitory concentration, Staphylococcus aureus; format: cell-based; conditions: 37 °C, 12-16 h, inoculum 10^5-10^7 cfu/mL, read-out: minimum inhibition concentration (MIC)
[7] = paper disc, 5 μmol per disc, CO2 incubator 37 °C, 10% CO2, 95% humidity

| SMILES | zone of inhibition at 5 µmol/disc [1, 7] | antimicrobial activity (growth inhibition zone), in words [2] | further results |
| --- | --- | --- | --- |
| CCCCCCCCCCc1ccc(O)c(O)c1O [DG, 4-decyl-1,2,3-benzenetriol] | 7 mm | – | – |
| CCCCCCCCCCCCCCCCCCCCc1ccc(O)c(O)c1O [EG, 4-eicosyl-1,2,3-benzenetriol] | 0 mm | 전혀 항균활성을 보이지 않았다 | – |
| Oc1cccc(O)c1O [G, pyrogallol] | 0 mm | 매우 약한 항균활성을 보였으며 | inhibition of cancer cell growth, in words [3]: 폐암이나 위암을 일으키는 세포의 생장을 억제시키는 항암작용에도 효과가 있음 |
| CCCCCc1cccc(O)c1O [PC, 3-pentylcatechol] | 31.5 ± 0.5 mm | – | allergenicity, in words [4]: 알러지 비유발성; antimicrobial activity, in words [5]: 강한 항균활성을 보였던 |
| CCCCCCCCCCCCCCCc1ccc(O)c(O)c1O [PDG, 4-pentadecyl-1,2,3-benzenetriol] | – | 전혀 항균활성을 보이지 않았다 | zone of inhibition at 5 µmol/disc [1]: 0 mm |
| CCCCCc1ccc(O)c(O)c1O [PG, 4-pentyl-1,2,3-benzenetriol] | 26.7 ± 0.6 mm | 가장 강한 항균활성을 보였다; also recorded: PC와 비슷하거나 그보다 우수한 항균활성을 보였다 | antimicrobial activity (growth inhibition zone), in words ([1]; paper disc, 5 μmol per disc, compared with other gallol derivatives): 가장 강한 항균활성을 보였다; antimicrobial activity by minimum inhibition concentration, in words [6]: 최소저해농도 결과에 있어서 뛰어난 항균활성을 나타내지 않았다; also recorded: 측쇄가 없는 G보다는 PG가 더 낮은 농도에서 활성을 보였다; allergenicity, in words [4]: 알러지 비유발성 |
| CCn1cc(C(=O)O)c(=O)c2ccc(C)nc21 [날리디식 에시드, nalidixic acid] | 11 ± 0.2 mm | – | – |
| O=C(O)c1ccccc1 [벤조익 에시드, benzoic acid] | – | – | MIC (S. aureus): 250 µM (≈ 30.5 µg/mL) |
| CC1(C)S[C@@H]2[C@H](NC(=O)[C@H](N)c3ccccc3)C(=O)N2[C@H]1C(=O)O [앰피실린, ampicillin] | 7 mm | – | – |
| CC[C@H]1OC(=O)[C@H](C)[C@@H](O[C@H]2C[C@@](C)(OC)[C@@H](O)[C@H](C)O2)[C@H](C)[C@@H](O[C@@H]2O[C@H](C)C[C@H](N(C)C)[C@H]2O)[C@](C)(O)C[C@@H](C)C(=O)[C@H](C)[C@@H](O)[C@]1(C)O [에리스로마이신, erythromycin] | 7 mm | – | – |
| CN(C)[C@@H]1C(O)=C(C(N)=O)C(=O)[C@@]2(O)C(O)=C3C(=O)c4c(O)cccc4[C@@](C)(O)[C@H]3C[C@@H]12 [테트라사이클린, tetracycline] | 9 mm | – | – |
